According to PubChem BioAssay AID248 (DTP/NCI, 2004):
“And” between values parts separate entries of the source, which are not always exact repeats. Equal values may be shown once. Inconclusive results and toxic doses are left out. Cut-off read from the data, not from the text of the source: active = T/C of 150% or more; inactive = T/C below 125%.

Test system: L1210 leukemia ip in BDF1 mice, survival T/C
Assay: NCI In Vivo Anticancer Drug Screen. Data for tumor model L1210 Leukemia (intraperitoneal) in B6D2F1 (BDF1) mice
Details: endpoint: mean survival time, higher = longer survival
Summary of the method: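 Value reflects the ratio of survival in compound-treated mice to survival in vehicle-treated controls, with both groups carrying the same transplanted tumor.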

[1] = dose: 100.0 mg/kg/injection, schedule: Q01DX001 (ip), vehicle: saline
[2] = dose: 200.0 mg/kg/injection, schedule: Q01DX001 (ip), vehicle: saline
[3] = dose: 400.0 mg/kg/injection, schedule: Q01DX001 (ip), vehicle: saline
[4] = dose: 100.0 mg/kg/injection, schedule: Q04DX003 (ip), vehicle: saline with Tween-80
[5] = dose: 200.0 mg/kg/injection, schedule: Q04DX003 (ip), vehicle: saline with Tween-80
[6] = dose: 400.0 mg/kg/injection, schedule: Q04DX003 (ip), vehicle: saline with Tween-80
[7] = dose: 25.0 mg/kg/injection, schedule: Q04DX003 (ip), vehicle: Klucel (hydroxypropylcellulose) (HPC)
[8] = dose: 50.0 mg/kg/injection, schedule: Q04DX003 (ip), vehicle: Klucel (hydroxypropylcellulose) (HPC)
[9] = dose: 100.0 mg/kg/injection, schedule: Q04DX003 (ip), vehicle: Klucel (hydroxypropylcellulose) (HPC)
[10] = dose: 50.0 mg/kg/injection, schedule: Q01DX001 (ip), vehicle: saline
[11] = dose: 100.0 mg/kg/injection, schedule: Q01DX001 (ip), vehicle: Klucel (hydroxypropylcellulose) (HPC)
[12] = dose: 200.0 mg/kg/injection, schedule: Q01DX001 (ip), vehicle: Klucel (hydroxypropylcellulose) (HPC)
[13] = dose: 100.0 mg/kg/injection, schedule: Q01DX009 (ip), vehicle: Klucel (hydroxypropylcellulose) (HPC)
[14] = dose: 200.0 mg/kg/injection, schedule: Q01DX009 (ip), vehicle: Klucel (hydroxypropylcellulose) (HPC)

Measured: T/C

CCN(CC)CCC(O)c1cc(-c2ccc(Cl)cc2)nc2ccc(OC)cc12 (stereo unspecified)
inactive: dose: 100.0 mg/kg/injection, schedule: Q01DX001 (ip), vehicle: carboxymethylcellulose (CMC) 94 % of control | dose: 100.0 mg/kg/injection, schedule: Q04DX003 (ip), vehicle: carboxymethylcellulose (CMC) 104 % of control | dose: 200.0 mg/kg/injection, schedule: Q01DX001 (ip), vehicle: carboxymethylcellulose (CMC) 92 % of control | dose: 200.0 mg/kg/injection, schedule: Q04DX003 (ip), vehicle: carboxymethylcellulose (CMC) 114 % of control | dose: 400.0 mg/kg/injection, schedule: Q01DX001 (ip), vehicle: carboxymethylcellulose (CMC) 94 % of control | dose: 400.0 mg/kg/injection, schedule: Q04DX003 (ip), vehicle: carboxymethylcellulose (CMC) 110 % of control

Nc1nnnc2c1cnn2C1OC(CO)C(O)C1O (stereo unspecified)
inactive: dose: 100.0 mg/kg/injection, schedule: Q01DX001 (ip), vehicle: other 97 % of control | dose: 200.0 mg/kg/injection, schedule: Q01DX001 (ip), vehicle: other 101 % of control | dose: 400.0 mg/kg/injection, schedule: Q01DX001 (ip), vehicle: other 101 % of control

O=C(O)/C(Cc1cccc(=O)n1Cc1ccccc1)=N\O
inactive: dose: 75.0 mg/kg/injection, schedule: Q01DX001 (ip), vehicle: Klucel (hydroxypropylcellulose) (HPC) 97 % of control | dose: 150.0 mg/kg/injection, schedule: Q01DX001 (ip), vehicle: Klucel (hydroxypropylcellulose) (HPC) 97 % of control | dose: 300.0 mg/kg/injection, schedule: Q01DX001 (ip), vehicle: Klucel (hydroxypropylcellulose) (HPC) 94 % of control

ClCC1CC2CC1C1OC21 (stereo unspecified)
inactive: [1] 106 % of control

O=C1CCCc2[nH]c(=O)ccc21
inactive: [1] 101 % of control | [2] 94 % of control | [3] 96 % of control

COc1ccccc1NC(N)=O
inactive: [4] 98 % of control | [5] 107 % of control | [6] 98 % of control

N#Cc1ccc(S(=O)(=O)Cl)cc1
inactive: [7] 95 % of control | [8] 100 % of control | [9] 93 % of control and 91 % of control

CN(C)C(=S)[S][Sb]([S]C(=S)N(C)C)[c]1ccccc1
inactive: dose: 100.0 mg/kg/injection, schedule: Q01DX001 (ip), vehicle: steriod suspending solution 96 % of control | dose: 200.0 mg/kg/injection, schedule: Q01DX001 (ip), vehicle: steriod suspending solution 96 % of control

Cc1ccc(N2CCN(CCCN3CCN(c4ccccc4Cl)CC3)CC2)cc1
inactive: dose: 6.25 mg/kg/injection, schedule: Q01DX009 (ip), vehicle: saline with Tween-80 99 % of control | dose: 12.5 mg/kg/injection, schedule: Q01DX009 (ip), vehicle: saline with Tween-80 89 % of control | dose: 12.5 mg/kg/injection, schedule: Q04DX003 (ip), vehicle: saline 92 % of control | dose: 25.0 mg/kg/injection, schedule: Q01DX009 (ip), vehicle: saline with Tween-80 94 % of control | dose: 25.0 mg/kg/injection, schedule: Q04DX003 (ip), vehicle: saline 90 % of control

O=C(/C=C(\S)c1ccccc1)c1ccccc1
inactive: [10] 101 % of control | [1] 104 % of control | [2] 98 % of control | [3] 101 % of control

CCOC(=O)c1nc(N)nc(N)c1Oc1ccccc1
inactive: dose: 50.0 mg/kg/injection, schedule: Q01DX001 (ip), vehicle: Klucel (hydroxypropylcellulose) (HPC) 92 % of control | [11] 93 % of control | [12] 92 % of control

S=C(Nc1ccccc1)N1CC1
inactive: [11] 96 % of control | [4] 91 % of control | [12] 98 % of control | [5] 92 % of control | dose: 400.0 mg/kg/injection, schedule: Q01DX001 (ip), vehicle: Klucel (hydroxypropylcellulose) (HPC) 94 % of control | [6] 90 % of control

CC(C)N(C(=O)Nc1cccc(F)c1)c1ccccc1
inactive: dose: 100.0 mg/kg/injection, schedule: Q01DX009 (ip), vehicle: gum acacia 96 % of control | dose: 200.0 mg/kg/injection, schedule: Q01DX009 (ip), vehicle: gum acacia 96 % of control | dose: 400.0 mg/kg/injection, schedule: Q01DX009 (ip), vehicle: gum acacia 90 % of control

CC1CC(C)(C)N=C(C(C)(C)c2ccccc2)O1 (stereo unspecified)
inactive: dose: 100.0 mg/kg/injection, schedule: Q04DX003 (ip), vehicle: saline sonified 102 % of control | dose: 200.0 mg/kg/injection, schedule: Q04DX003 (ip), vehicle: saline sonified 103 % of control | dose: 400.0 mg/kg/injection, schedule: Q04DX003 (ip), vehicle: saline sonified 98 % of control

O=C(CCCCNC(=O)C1CCCN1Sc1ccc([N+](=O)[O-])cc1[N+](=O)[O-])OCc1ccccc1 (stereo unspecified)
inactive: dose: 100.0 mg/kg/injection, schedule: Q04DX002 (ip), vehicle: Klucel (hydroxypropylcellulose) (HPC) 90 % of control | dose: 200.0 mg/kg/injection, schedule: Q04DX002 (ip), vehicle: Klucel (hydroxypropylcellulose) (HPC) 94 % of control | dose: 400.0 mg/kg/injection, schedule: Q04DX002 (ip), vehicle: Klucel (hydroxypropylcellulose) (HPC) 94 % of control

N=C(N)Sc1cccc[n+]1[O-]
inactive: [1] 105 % of control | [2] 111 % of control

Nc1cccc(OCCCCc2ccccc2)c1
inactive: [4] 101 % of control | [5] 95 % of control

Cc1ccccc1NC(=O)Nc1cccc(C)c1C
inactive: [13] 87 % of control | [9] 98 % of control | [14] 95 % of control | dose: 200.0 mg/kg/injection, schedule: Q04DX003 (ip), vehicle: Klucel (hydroxypropylcellulose) (HPC) 93 % of control | dose: 400.0 mg/kg/injection, schedule: Q04DX003 (ip), vehicle: Klucel (hydroxypropylcellulose) (HPC) 94 % of control

[Cl][Ni][Cl].[NH-]CCN1CC1.[NH-]CCN1CC1
inactive: dose: 1.75 mg/kg/injection, schedule: Q01DX009 (ip), vehicle: saline 101 % of control | dose: 3.5 mg/kg/injection, schedule: Q01DX009 (ip), vehicle: saline 97 % of control | dose: 7.0 mg/kg/injection, schedule: Q01DX009 (ip), vehicle: saline 103 % of control | dose: 14.0 mg/kg/injection, schedule: Q01DX009 (ip), vehicle: saline 98 % of control

CC(=O)NC1CCC(C)CC1 (stereo unspecified)
inactive: [10] 109 % of control | [11] 93 % of control | [1] 93 % of control | [2] 102 % of control

c1ccc2c(c1)C1c3cccc[n+]3C2CC1n1c2ccccc2c2ccccc21 (stereo unspecified)
inactive: dose: 12.5 mg/kg/injection, schedule: Q01DX009 (ip), vehicle: Klucel (hydroxypropylcellulose) (HPC) 106 % of control | dose: 12.5 mg/kg/injection, schedule: Q04DX003 (ip), vehicle: Klucel (hydroxypropylcellulose) (HPC) 111 % of control | dose: 25.0 mg/kg/injection, schedule: Q01DX009 (ip), vehicle: Klucel (hydroxypropylcellulose) (HPC) 106 % of control | [7] 106 % of control | [8] 91 % of control | [13] 102 % of control | dose: 100.0 mg/kg/injection, schedule: Q04DX003 (ip), vehicle: saline 93 % of control | [14] 94 % of control | dose: 200.0 mg/kg/injection, schedule: Q04DX003 (ip), vehicle: saline 98 % of control | dose: 400.0 mg/kg/injection, schedule: Q01DX009 (ip), vehicle: Klucel (hydroxypropylcellulose) (HPC) 94 % of control | dose: 400.0 mg/kg/injection, schedule: Q04DX003 (ip), vehicle: saline 94 % of control

CCN(CC)CCOC(=O)C(S)(c1ccccc1)C1CCCCC1 (stereo unspecified)
inactive: dose: 75.0 mg/kg/injection, schedule: Q01DX001 (ip), vehicle: other 90 % of control | dose: 150.0 mg/kg/injection, schedule: Q01DX001 (ip), vehicle: other 87 % of control
